Data from ChEMBL document CHEMBL1129417, “Glucose transport-enhancing and hypoglycemic activity of 2-methyl-2-phenoxy-3-phenylpropanoic acids” (1996).

Legend:
Rattus norvegicus [1] = organism: Rattus norvegicus; assay: Percentage inhibition of basal stimulated Gluconeogenesis in Isolated Rat Hepatocytes in vitro; assay type: functional, Hepatocyte
Rattus norvegicus [2] = organism: Rattus norvegicus; assay: Inhibition of gluconeogenesis in rat; assay type: functional
Mus musculus [3] = assay: compound was tested in vivo for hypoglycemic activity expressed as Glucose lowering relative to positive control in 6-8 week old C57BL/6J ob/ob mouse at 50 mg/kg; assay type: functional
3T3-L1 [4] = assay: In vitro measurements 2-Deoxyglucose (2DG) uptake in vehicle treated 3T3-L1 adipocytes at 100 uM dose.; assay type: functional
Mus musculus [5] = assay: In vivo hypoglycemic activity expressed as glucose lowering relative to positive control in 6-8 week old C57BL/6J ob/ob mouse at 10 mg/kg; assay type: functional
Mus musculus [6] = assay: In vivo hypoglycemic activity expressed as glucose lowering relative to positive control in 6-8 week old C57BL/6J ob/ob mouse at 5 mg/kg.; assay type: functional
Rattus norvegicus [7] = organism: Rattus norvegicus; assay: Percentage inhibition of Glucagon-stimulated Gluconeogenesis in Isolated Rat Hepatocytes in vitro; assay type: functional, Hepatocyte
3T3-L1 [8] = assay: Acute effects in vitro by measuring 2-deoxyglucose (2DG) uptake in vehicle treated 3T3-L1 adipocytes at 30 uM dose.; assay type: functional
3T3-L1 [9] = assay: compound was evaluated for their acute effects in vitro by measuring 2-Deoxyglucose (2DG) uptake in vehicle treated 3T3-L1 adipocytes at 0.5 uM dose.; assay type: functional
3T3-L1 [10] = assay: compound was evaluated for their acute effects in vitro by measuring 2-Deoxyglucose (2DG) uptake in vehicle treated 3T3-L1 adipocytes at 1 uM dose.; assay type: functional
Mus musculus [11] = assay: In vivo hypoglycemic activity expressed as glucose lowering relative to positive control in 6-8 week old C57BL/6J ob/ob mouse at 1 mg/kg.; assay type: functional
3T3-L1 [12] = assay: In vitro by measurements of 2-Deoxyglucose (2DG) uptake in vehicle treated 3T3-L1 adipocytes at 3 uM dose.; assay type: functional
3T3-L1 [13] = assay: Acute effects in vitro by measuring 2-deoxyglucose (2DG) uptake in vehicle treated 3T3-L1 adipocytes at 10 uM dose.; assay type: functional
3T3-L1 [14] = assay: In vitro measurements of 2-Deoxyglucose (2DG) uptake in vehicle treated 3T3-L1 adipocytes at 60 uM dose.; assay type: functional
Mus musculus [15] = assay: compound was tested in vivo for hypoglycemic activity expressed as Glucose lowering relative to positive control in 6-8 week old C57BL/6J ob/ob mouse at 2.5 mg/kg; assay type: functional

Compound | Inhibition (Rattus norvegicus [1]) | ED50 (Rattus norvegicus [2]; Rattus norvegicus, read-out: ED50) | Hypoglycemic activity (Mus musculus [3]) | Basal uptake (3T3-L1 [4]) | Hypoglycemic activity (Mus musculus [5]) | Hypoglycemic activity (Mus musculus [6]) | Inhibition (Rattus norvegicus [7]) | Basal uptake (3T3-L1 [8]) | Basal uptake (3T3-L1 [9]) | ED50 (Rattus norvegicus [2]) | Basal uptake (3T3-L1 [10]) | Hypoglycemic activity (Mus musculus [11]) | Basal uptake (3T3-L1 [12]) | Basal uptake (3T3-L1 [13]) | Basal uptake (3T3-L1 [14]) | Hypoglycemic activity (Mus musculus [15]) | Hypoglycemic activity (Mus musculus [5]; 10 mg/kg)
CC(C)c1ccc(OC(Cc2ccc(Cl)cc2)C(=O)O)cc1 (stereo not drawn) | 32% | 10 mg/kg | 82% | 150% | 58% | 26% | 20% | – | – | – | – | – | – | – | – | – | –
CC(C)c1ccc(OC(C)(C(=O)O)C(C)c2ccc(Cl)cc2)cc1 (stereo in doubt; 84) | – | – | – | – | – | 77% | – | 128% | 98% | 2.5 mg/kg | 99% | <0% | 102% | 131% | 214% | 62% | 142%
